Laboratory results from patent US20080145893A1, “Method for producing a recombinant protein at high specific productivity, high batch yield and high volumetric yield by means of transient transfection” (EXCELLEGENE SA, priority 2006, published 2008).

Assays:
HEK293E cells [1] = experiment: Influence of 2-aminopurine on IgG batch yield (ELISA) of transiently transfected cells; type: cell-based; conditions: with 3 mmol/l sodium butyrate, day 18
HEK293E cells [2] = experiment: Influence of sodium butyrate on IgG batch yield (ELISA) of transiently transfected cells; conditions: day 14
CHO DG44 cells = experiment: Influence of temperature and sodium butyrate on IgG batch yield (ELISA) of transiently transfected cells; type: cell-based; conditions: 2 mmol/l NaBut, peak value during 18 day cultivation
Description: After that time, 18 ml of ProCHO5 medium were added. The cells were then equally distributed into 4 new 50-ml filter tubes (i.e., 5 ml of cell suspension in each tube) and treated as follows:
Tubes 8.1 and 8.3: Addition of sodium butyrate to a final concentration of 2 mmol/l
Tubes 8.2 and 8.4: No addition of sodium butyrate.

Compound | Batch yield (HEK293E cells [1]; 5 mmol/l 2-aminopurine) | Batch yield (HEK293E cells [1]; 10 mmol/l 2-aminopurine) | Batch yield (HEK293E cells [2]; 1 mmol/l NaBut) | Batch yield (HEK293E cells [2]; 2 mmol/l NaBut) | Batch yield (HEK293E cells [2]; 3 mmol/l NaBut) | Batch yield (HEK293E cells [2]; 6 mmol/NaBut) | Batch yield (HEK293E cells [2]; 12 mmol/l NaBut) | Maximum batch yield (CHO DG44 cells; 31° C.) | Maximum batch yield (CHO DG44 cells; 37° C.)
Nc1ncc2[nH]cnc2n1 [2-aminopurine] | 628 mg/L | 708 mg/L | – | – | – | – | – | – | –
CCCC(=O)[O-].[Na+] [NaBut, sodium butyrate] | – | – | 419 mg/L | 632 mg/L | 673 mg/L | 447 mg/L | 288 mg/L | 231 mg/L | 218 mg/L
